Reference: article PMC5584254, “Identification of novel small molecule Beclin 1 mimetics activating autophagy” (Oncotarget, 2017)

Experiments:
[1] = test system: DU145; assay: MTT-based cytotoxicity assay, DU145; conditions: Homo sapiens, DU-145, averages of at least two independent experiments, read-out: Cytotoxicity in different cell lines (IC50, μM) DU145
Description: (§1) Human prostate cancer cell lines PC-3 and DU145, were purchased from American Type Culture Collection (ATCC) and used within 50 passages. PC-3a is a derivative of PC-3 that is resistant to chemo/radiotherapy, established in our lab and confirmed by genotyping. All cells were maintained in DMEM (Mediatech, Manassas, VA) supplemented with 10% fetal bovine serum (FBS) (Sigma-Aldrich, St. Louis, MO), 1% Glutamine (Mediatech, Manassas, VA), 1% antibiotics (Mediatech, Manassas, VA). Compounds for primary FP-based HTS screening were from Prestwick, Microsource, University of Kansas Center of Excellence in Chemical Methodologies & Library Development (KU CMLD, Lawrence, KS), and Chembridge libraries. Compounds for MTT and SPR validation experiment were purchased from Microsource (Gaylordsville, CT) and Hit2lead Company (San Diego, CA). Acridine analogues, compound 1–6, were from our in-house library (provided by Specialized Chemistry Center, University of Kansas, Lawrence, KS); compound 7–17 were synthesized as described in supplementary information. (–)-Gossypol was isolated from racemic gossypol as we previously described. ABT-263 and DMSO were purchased from Sigma. MTT-based cytotoxicity assay and western blot analysis was carried out according to our previous publications. The primary antibodies used were LC3B (#2775) (Cell signaling Technology, Danvers, MA) and β-actin (A5441) (Sigma).

[2] = test system: PC-3a; assay: MTT-based cytotoxicity assay, PC-3a; conditions: Homo sapiens, averages of at least two independent experiments, read-out: Cytotoxicity in different cell lines (IC50, μM) PC-3a
Description: as §1

[3] = test system: PC-3; assay: MTT-based cytotoxicity assay, PC-3; conditions: Homo sapiens, averages of at least two independent experiments, read-out: Cytotoxicity in different cell lines (IC50, μM) PC-3
Description: as §1

[4] = biological target: T1, Bcl-xL protein (Homo sapiens, UniProt Q07817); assay: Surface plasmon resonance assay, immobilized Bcl-xL; format: binding; conditions: SPR; 10 μM compound; Bcl-xL immobilized 10000 RU
T1 construct: made in house
T1 sequence (Q07817 whole entry): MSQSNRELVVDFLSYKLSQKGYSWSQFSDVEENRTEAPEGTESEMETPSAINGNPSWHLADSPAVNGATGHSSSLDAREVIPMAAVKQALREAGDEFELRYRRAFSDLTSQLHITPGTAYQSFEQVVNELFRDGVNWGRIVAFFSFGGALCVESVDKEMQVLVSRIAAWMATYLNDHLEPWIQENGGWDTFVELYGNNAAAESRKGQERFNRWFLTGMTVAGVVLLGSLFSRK
Protocol: The surface plasmon resonance experiments were performed using a Biacore 3000 (GE Healthcare Pittsburgh, PA) equipped with a research-grade CM5 sensor chip. The ligand (Bcl-xL) was immobilized using amine-coupling chemistry. The surfaces of flow cells on a Biacore sensor chip CM5 were activated for 7 min with a 1:1 mixture of 0.1 M NHS (N-hydroxysuccinimide) and 0.1 M EDC (3-(N,N-dimethylamino) propyl-N-ethylcarbodiimide) at a flow rate of 5 μL/min. The ligand (Bcl-xL) at a concentration of 180 μg/mL in 10 mM sodium acetate, pH 4.5, was immobilized at a density of about 10000 RU on flow cell 2; the ligand (SUMO-Bcl-2, 37.5 kDa, > 90% pure based on SDS–PAGE) at a concentration of 44 μg/ml in 10 mM sodium acetate, pH 4.5, was immobilized at a density of 10000 RU on flow cell 3; flow cell 1 was left blank to serve as a reference surface. All the surfaces were blocked with a 7 min injection of 1 M ethanolamine, pH 8.0.
For kinetic analysis, a concentration series of analyte were injected over the flow cells at a flow rate of 60 μL/min at 20 °C. The complex was allowed to associate and dissociate for 120 and 180 s, respectively. For binding studies, analyte (or test compound) was injected over the two flow cells in duplicate at indicated concentration at a flow rate of 60 μL/min at 20 °C. The running buffer consisted of 20 mM HEPES, 150 mM NaCl, 3 mM EDTA, 1 mM DTT, 0.05% P20, 5% DMSO, pH 7.4. The complex was allowed to associate and dissociate for 120 and 180 s, respectively. The buffer samples containing a range of 4–6% DMSO were injected at the beginning, used for solvent correction. The surfaces were regenerated between binding cycles with a 5 s injection of 5 mM NaOH for compounds and 10 mM Glycine pH 2.5 for 20-mer.
All measurements were taken with flow cell 1 as a reference (i.e. sensorgram depicts “2–1 correction”) and corrected for DMSO bulk differences via the calibration curves. To obtain kinetic rate constants (Ka and Kd), corrected response data were fit to a simple 1:1 interaction model using local fit (includes correction for mass transport limitations) available within Biaevaluation 3.1 software or Scrubber2 software. The equilibrium dissociation constant (KD) was determined by Kd/Ka.

Question: With COc1ccc(CCN(C)c2c3ccccc3nc3ccccc23)cc1OC [Compound 1] as the compound, how does the IC50 [1] read?
Answer: 8.15 ± 0.59 µM

Question: What about the IC50 [2] of the same compound?
Answer: 5.81 ± 1.16 µM

Question: What about the IC50 [3] of the same compound?
Answer: 6.04 ± 0.68 µM

Question: And the “binding level to Bcl-xL protein in SPR” value [4]?
Answer: almost no binding

Question: What does the source list for CN(CCc1ccc(O)c(O)c1)c1c2ccccc2nc2ccccc12 [Compound 2]?
Answer: IC50 [1]: 47 ± 7.39 µM; IC50 [2]: 29.2 ± 11.2 µM; IC50 [3]: 38.7 ± 5.46 µM

Question: What does the source list for COc1cc(Br)c(CCNc2c3ccccc3nc3ccccc23)cc1OC [Compound 4]?
Answer: IC50 [1]: 6.33 ± 0.32 µM; IC50 [2]: 4.37 ± 0.68 µM; IC50 [3]: 4.43 ± 0.46 µM

Question: With COc1ccc2nc3cc(Cl)ccc3c(NCCOCCO)c2c1 [Compound 8] as the compound, how does the IC50 [1] read?
Answer: 3.68 ± 0.55 µM

Question: What about the IC50 [2] of the same compound?
Answer: 1.64 ± 0.78 µM

Question: What about the IC50 [3] of the same compound?
Answer: 1.42 ± 0.73 µM

Question: COc1ccc2nc3cc(Cl)ccc3c(Oc3ccccc3)c2c1 [Compound 10] was tested. Which IC50 [1] did it give?
Answer: 77.7 ± 24.2 µM

Question: What about the IC50 [2] of the same compound?
Answer: 36.1 ± 8.23 µM

Question: And the IC50 [3]?
Answer: 14.1 ± 0.71 µM

Question: How did the IC50 [1] turn out when COc1ccc2nc3ccccc3c(-c3ccncc3)c2c1 [Compound 12] was run?
Answer: 45.4 ± 8.18 µM

Question: And the IC50 [2]?
Answer: 16.4 ± 2.56 µM

Question: And the IC50 [3]?
Answer: 21.6 ± 2.24 µM

Question: Which IC50 [1] does the source give for COc1ccc2nc3cc(Cl)ccc3c(-c3ccncc3)c2c1 [Compound 13] here?
Answer: 57 ± 14.5 µM

Question: And the IC50 [2]?
Answer: 53.9 ± 3.66 µM

Question: And the IC50 [3]?
Answer: 52.4 ± 10.4 µM

Question: Which results are given for COc1ccc2nc3cc(Cl)ccc3c(-c3ccc(NC(=O)OC(C)(C)C)cc3)c2c1 [Compound 16]?
Answer: IC50 [1]: 36 ± 14 µM; IC50 [2]: 38.7 ± 20.4 µM; IC50 [3]: 45 ± 20.2 µM

Question: With COc1ccc2nc3cc(Cl)ccc3c(-c3ccc(N)cc3)c2c1 [Compound 17] as the compound, how does the IC50 [1] read?
Answer: 53 ± 14.7 µM

Question: What about the IC50 [2] of the same compound?
Answer: > 100 µM

Question: And the IC50 [3]?
Answer: 29.5 ± 28.4 µM
